Consider 28 compounds from US10745346B2, “Agonists of protein tyrosine phosphatase SHP-1” (priority 2015, dated 2020).

In assay [1] the test system is PLC5 cells (a hepatocellular carcinoma cell line). In words: Cytotoxicity, MTT cell viability assay. The settings on record: 72 h exposure. It counts as cell-based. The protocol: PLC5 cells (a hepatocellular carcinoma cell line) were seeded at 5×10^3 cells per well in 96-well plates. Then, cells were exposed to SC derivatives at the indicated doses for 72 h. After that, cells were incubated with MTT (1 mg/ml) (Sigma-Aldrich, St. Louis, Mo.) for 2 h at 37° C. Cell viability was then assessed by measuring the absorbance at 570 nm using a microplate reader.

In assay [2] the target is Recombinant SHP-1 protein (Homo sapiens, UniProt P29350). The assay can be described thus: SHP-1 phosphatase activity assay (RediPlate 96 EnzChek Tyrosine Phosphatase Assay kit). It counts as biochemical. As to conditions: SC derivatives at 1 μM for 2 hr; recombinant SHP-1 25 ng; control DMSO = 100; mean±SD (N=3). The protocol:
Effects of SC Derivatives on Phosphatase Activity in Recombinant SHP-1 RediPlate 96 EnzChek Tyrosine Phosphatase Assay kit (R-22067) was used for SHP-1 activity assay (Molecular Probes). Recombinant SHP-1 protein (25 ng) was reacted with SC derivatives at 1 μM for 2 hr. Then the SHP-1 phosphatase activity assay was performed according to the user's manual and the absorbance was measured at 465 nm. The control group was DMSO, which functioned as the solvent of the SC derivatives. The values were expressed by mean±SD (N=3).

What is called IC50 is the midpoint of a concentration-inhibition curve.

SMILES strings stand for the structures.

Recombinant SHP-1 protein, sequence (P29350 whole entry): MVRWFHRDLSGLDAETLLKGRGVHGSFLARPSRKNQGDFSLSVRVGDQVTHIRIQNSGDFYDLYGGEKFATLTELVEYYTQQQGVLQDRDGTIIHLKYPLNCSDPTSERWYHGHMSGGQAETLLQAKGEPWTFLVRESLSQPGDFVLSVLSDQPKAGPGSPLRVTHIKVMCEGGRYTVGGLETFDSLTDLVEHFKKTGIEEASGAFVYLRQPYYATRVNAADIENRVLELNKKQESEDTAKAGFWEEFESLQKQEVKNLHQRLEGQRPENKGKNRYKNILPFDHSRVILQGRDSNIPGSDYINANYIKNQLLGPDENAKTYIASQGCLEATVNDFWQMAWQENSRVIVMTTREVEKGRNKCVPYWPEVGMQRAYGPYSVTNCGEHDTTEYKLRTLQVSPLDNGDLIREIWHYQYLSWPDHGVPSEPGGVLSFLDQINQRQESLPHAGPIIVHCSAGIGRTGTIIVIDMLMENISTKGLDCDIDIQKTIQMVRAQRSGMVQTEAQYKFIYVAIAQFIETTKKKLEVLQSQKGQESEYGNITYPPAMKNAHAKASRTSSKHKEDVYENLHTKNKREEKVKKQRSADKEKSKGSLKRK

In turn, `C#Cc1cccc(NC(=O)Nc2cccc(Oc3ccc(C#N)cc3)c2)c1` [compound 65, 1-(3-(4-cyanophenoxy)phenyl)-3-(3-ethynylphenyl)urea] registered an IC50 in assay [1] of 1410 nM. Moreover, the “SHP-1 Activity (% of control)” value in assay [2] was 84.35 ± 22.40 % of control.
Compound `N#Cc1ccc(Oc2cc(NC(=O)Nc3ccc(F)c(C(F)(F)F)c3)ccc2F)cc1` [compound 154, 1-(3-(4-cyanophenoxy)-4-fluorophenyl)-3-(4-fluoro-3-(trifluoromethyl)phenyl)urea] had a half-maximal inhibitory concentration (IC50) in assay [1] of 620 nM. Besides, the “SHP-1 Activity (% of control)” value in assay [2] is 115.12 ± 3.84 % of control.
In assay [1], `N#CCc1ccc(Oc2ccc(NC(=O)Nc3ccc(Cl)c(C(F)(F)F)c3)cc2)cc1` [compound 171, 1-(4-chloro-3-(trifluoromethyl)phenyl)-3-(4-(4-(cyanomethyl)phenoxy)phenyl)urea] returned an IC50 of 880 nM. In addition, in assay [2], the “SHP-1 Activity (% of control)” value is 116.66 ± 17.26 % of control.
As for `Cc1cc(Oc2cc(NC(=O)Nc3ccc(Cl)c(C(F)(F)F)c3)ccc2Cl)ccc1C#N` [compound 175, 1-(4-chloro-3-(4-cyano-3-methylphenoxy)phenyl)-3-(4-chloro-3-(trifluoromethyl)phenyl)urea], inhibition in assay [1] was half-maximal at 1200 nM (IC50). In addition, in assay [2], the “SHP-1 Activity (% of control)” value is on record as 233.37 ± 36.5 % of control.
On the same counts, the results for `C#Cc1cccc(NC(=O)Nc2ccc(Oc3ccc(CC#N)cc3)cc2)c1` [compound 170, 1-(4-(4-(cyanomethyl)phenoxy)phenyl)-3-(3-ethynylphenyl)urea] are above 10000 nM and 101.42 ± 7.86 % of control.
`N#CCc1ccc(NC(=O)Nc2ccc(Oc3ccc(CC#N)cc3)cc2)cc1` [compound 169, 1-(4-(4-(cyanomethyl)phenoxy)phenyl)-3-(4-(cyanomethyl)phenyl)urea] showed an IC50 in assay [1] above 10000 nM. In addition, the “SHP-1 Activity (% of control)” value in assay [2] is 126.25 ± 1.46 % of control.
In assay [1], `Cc1ccc(NC(=O)Nc2ccc(Cl)c(C(F)(F)F)c2)cc1Oc1ccc(C#N)nc1` [compound 87, 1-(4-chloro-3-(trifluoromethyl)phenyl)-3-(3-((6-cyanopyridin-3-yl)oxy)-4-methylphenyl)urea] registered an IC50 of 970 nM. Also, the “SHP-1 Activity (% of control)” value in assay [2] was 264.67 ± 32.11 % of control.
Regarding `C#Cc1cccc(NC(=O)Nc2ccc(Cl)c(Oc3ccc(C#N)cc3)c2)c1` [compound 140, 1-(4-chloro-3-(4-cyanophenoxy)phenyl)-3-(3-ethynylphenyl)urea], the IC50 in assay [1] was determined as 830 nM. For the same compound, the “SHP-1 Activity (% of control)” value in assay [2] is 140.81 ± 2.48 % of control.
As to `Cc1ccc(NC(=O)Nc2ccc(F)c(C(F)(F)F)c2)cc1Oc1ccc(C#N)cc1` [compound 132, 1-(3-(4-cyanophenoxy)-4-methylphenyl)-3-(4-fluoro-3-(trifluoromethyl)phenyl)urea], in assay [1], the IC50 came out at 640 nM. In assay [2], the “SHP-1 Activity (% of control)” value is reported as 151.59 ± 9.68 % of control.
On the same counts, the results for `Cc1ccc(NC(=O)Nc2ccc(C)c(Oc3ccc(C#N)c(Cl)c3)c2)cc1Oc1ccc(C#N)nc1` [compound 103, 1-(3-(3-chloro-4-cyanophenoxy)-4-methylphenyl)-3-(3-((6-cyanopyridin-3-yl)oxy)51-4-methylphenyl)urea] are 190 nM and 123.75 ± 32.58 % of control.
As for `N#CCc1ccc(Oc2ccc(NC(=O)Nc3ccc(F)c(C(F)(F)F)c3)cc2)cc1` [compound 168, 1-(4-(4-(cyanomethyl)phenoxy)phenyl)-3-(4-fluoro-3-(trifluoromethyl)phenyl)urea], in assay [1], half-maximal inhibition (IC50) was put at 1070 nM. In addition, the “SHP-1 Activity (% of control)” value in assay [2] was 147.25 ± 78.63 % of control.
In turn, `N#Cc1ccc(Oc2cc(NC(=O)Nc3cc(C(F)(F)F)cc(C(F)(F)F)c3)ccc2Cl)cc1Cl` [compound 180, 1-(3,5-bis(trifluoromethyl)phenyl)-3-(4-chloro-3-(3-chloro-4-cyanophenoxy)phenyl)urea] yielded an IC50 in assay [1] of 780 nM. For the same compound, the “SHP-1 Activity (% of control)” value in assay [2] is recorded as 105.52 ± 0.87 % of control.
On the same counts, the results for `C#Cc1cccc(NC(=O)Nc2ccc(C)c(Oc3ccc(C#N)cc3)c2)c1` [compound 66, 1-(3-(4-cyanophenoxy)-4-methylphenyl)-3-(3-ethynylphenyl)urea] are above 10000 nM and 93.26 ± 9.30 % of control.
As to `N#Cc1ccc(Oc2ccc(Cl)c(NC(=O)Nc3cc(Oc4ccc(C#N)cc4)ccc3Cl)c2)cc1` [compound 91, 1,3-bis(2-chloro-5-(4-cyanophenoxy)phenyl)urea], in assay [1], the IC50 is above 10000 nM. Moreover, the “SHP-1 Activity (% of control)” value in assay [2] is reported as 99.99 ± 4.52 % of control.
`N#Cc1ccc(Oc2cc(NC(=O)Nc3cc(C(F)(F)F)cc(C(F)(F)F)c3)ccc2F)cc1` [compound 152, 1-(3,5-bis(trifluoromethyl)phenyl)-3-(3-(4-cyanophenoxy)-4-fluorophenyl) urea] showed an IC50 in assay [1] of 340 nM. In assay [2], the “SHP-1 Activity (% of control)” value was 336.99 ± 50.76 % of control.
`N#Cc1ccc(Oc2ccc(F)c(NC(=O)Nc3cc(C(F)(F)F)cc(C(F)(F)F)c3)c2)cn1` [compound 183, 1-(3,5-bis(trifluoromethyl)phenyl)-3-(5-((6-cyanopyridin-3-yl)oxy)-2-fluorophenyl)urea] had a half-inhibitory concentration (IC50) in assay [1] of 530 nM. For the same compound, the “SHP-1 Activity (% of control)” value in assay [2] is recorded as 353.11 ± 30.81 % of control.
Consider `Cc1cc(Oc2cc(NC(=O)Nc3ccc(C)c(Oc4ccc(C#N)nc4)c3)ccc2C)ccc1C#N` [compound 102, 1-(3-(4-cyano-3-methylphenoxy)-4-methylphenyl)-3-(3-((6-cyanopyridin-3-yl)oxy)-4-methylphenyl)urea], for which, in assay [1], half-maximal inhibition (IC50) required 160 nM. Also, the “SHP-1 Activity (% of control)” value in assay [2] is recorded as 140.46 ± 12.56 % of control.
`N#Cc1ccc(Oc2cc(NC(=O)Nc3ccc(F)c(C(F)(F)F)c3)ccc2Cl)cc1Cl` [compound 181, 1-(4-chloro-3-(3-chloro-4-cyanophenoxy)phenyl)-3-(4-fluoro-3-(trifluoromethyl)phenyl)urea]: in assay [1], the IC50 was 930 nM. Moreover, in assay [2], the “SHP-1 Activity (% of control)” value is listed as 106.88 ± 3.58 % of control.
The compound `N#Cc1ccc(Oc2ccc3c(c2)N(C(=O)Nc2cccc(C(F)(F)F)c2)CCO3)cc1` [compound 159, 6-(4-cyanophenoxy)-N-(3-(trifluoromethyl)phenyl)-2H-benzo[b][1,4]oxazine-4(3H)-carboxamide] came in with an IC50 in assay [1] of 2560 nM. Moreover, in assay [2], the “SHP-1 Activity (% of control)” value is given as 98.04 ± 8.80 % of control.
Turning to `N#Cc1ccc(Oc2cc(NC(=O)Nc3ccc(F)c(Oc4ccc(C#N)cc4)c3)ccc2F)cc1` [compound 112, 1,3-bis(3-(4-cyanophenoxy)-4-fluorophenyl)urea], in assay [1], the IC50 turned out to be 490 nM. In addition, the “SHP-1 Activity (% of control)” value in assay [2] is recorded as 146.18 ± 14.74 % of control.
In assay [1], `N#Cc1ccc(Oc2ccc(F)c(NC(=O)Nc3ccc(F)c(C(F)(F)F)c3)c2)cc1` [compound 145, 1-(5-(4-cyanophenoxy)-2-fluorophenyl)-3-(4-fluoro-3-(trifluoromethyl)phenyl)urea] gave an IC50 of 850 nM. The “SHP-1 Activity (% of control)” value in assay [2] is given as 168.15 ± 1.97 % of control.
`Cc1cc(Oc2ccc(C#N)cc2)ccc1NC(=O)Nc1ccc(Oc2ccc(C#N)cc2)cc1C` [compound 90, 1,3-bis(4-(4-cyanophenoxy)-2-methylphenyl)urea] registered an IC50 in assay [1] above 10000 nM. The “SHP-1 Activity (% of control)” value in assay [2] is 95.78 ± 10.66 % of control.
On to `Cc1ccc(NC(=O)Nc2ccc(Cl)c(C(F)(F)F)c2)cc1Oc1ccc(C#N)c2ccccc12` [compound 114, 1-(4-chloro-3-(trifluoromethyl)phenyl)-3-(3-((4-cyanonaphthalen-1-yl)oxy)-4-methylphenyl)urea], for which the IC50 in assay [1] stood at 760 nM. In addition, in assay [2], the “SHP-1 Activity (% of control)” value was 156.85 ± 6.04 % of control.
Take `Cc1ccc(NC(=O)Nc2ccc(C)c(Oc3ccc(C#N)c(Cl)c3)c2)cc1Oc1ccc(C#N)cc1` [compound 100, 1-(3-(3-chloro-4-cyanophenoxy)-4-methylphenyl)-3-(3-(4-cyanophenoxy)-4-methylphenyl)urea]: the IC50 in assay [1] came to 110 nM. Moreover, the “SHP-1 Activity (% of control)” value in assay [2] is reported as 94.38 ± 11.11 % of control.
On to `N#CCc1ccc(Oc2ccc(NC(=O)Nc3cc(C(F)(F)F)cc(C(F)(F)F)c3)cc2)cc1` [compound 172, 1-(3,5-bis(trifluoromethyl)phenyl)-3-(4-(4-(cyanomethyl)phenoxy)phenyl) urea], for which the IC50 in assay [1] was 410 nM. The “SHP-1 Activity (% of control)” value in assay [2] was 215.34 ± 12.22 % of control.
`C#Cc1cccc(NC(=O)Nc2ccc(F)c(Oc3ccc(C#N)cc3)c2)c1` [compound 150, 1-(3-(4-cyanophenoxy)-4-fluorophenyl)-3-(3-ethynylphenyl)urea] had an IC50 in assay [1] of 2230 nM. For the same compound, in assay [2], the “SHP-1 Activity (% of control)” value is 129.59 ± 59 % of control.
As for `N#CC1=CCC(OC2=CC(NC(=O)C(=O)Nc3cccc(Oc4ccc(C#N)cc4)c3)CC=C2)C=C1` (centres unmarked) [compound 70, N^1-(3-((4-cyanocyclohexa-2,4-dien-1-yl)oxy)cyclohexa-2,4-dien-1-yl)-N^2-(3-(4-cyanophenoxy)phenyl)oxalamide], the IC50 in assay [1] is above 10000 nM. In assay [2], the “SHP-1 Activity (% of control)” value was 91.23 ± 15.95 % of control.
In assay [1], `Cc1ccc(NC(=O)Nc2ccc(C)c(Oc3ccc(C#N)c4ccccc34)c2)cc1Oc1ccc(C#N)c2ccccc12` [compound 113, 1,3-bis(3-((4-cyanonaphthalen-1-yl)oxy)-4-methylphenyl)urea] displayed an IC50 above 10000 nM. Further, the “SHP-1 Activity (% of control)” value in assay [2] is on record as 153.49 ± 13.55 % of control.
